The target in the experiment is T1, Human Factor XIIa (Homo sapiens, UniProt P00748).
T1 construct: Proteolytic cleavage of FXII to heavy and light chains of FXIIa dramatically increases catalytic activity; purchased Enzyme Research Laboratories
T1 sequence (P00748 373-615 limits assumed): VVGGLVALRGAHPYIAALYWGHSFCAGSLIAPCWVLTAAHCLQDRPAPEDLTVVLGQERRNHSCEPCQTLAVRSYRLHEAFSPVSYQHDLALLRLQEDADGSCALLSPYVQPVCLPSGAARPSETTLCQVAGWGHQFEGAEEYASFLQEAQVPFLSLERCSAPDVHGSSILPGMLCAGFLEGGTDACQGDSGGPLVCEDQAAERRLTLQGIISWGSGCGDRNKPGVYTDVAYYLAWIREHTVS
T1 sequence (P00748 20-372 partner limits assumed): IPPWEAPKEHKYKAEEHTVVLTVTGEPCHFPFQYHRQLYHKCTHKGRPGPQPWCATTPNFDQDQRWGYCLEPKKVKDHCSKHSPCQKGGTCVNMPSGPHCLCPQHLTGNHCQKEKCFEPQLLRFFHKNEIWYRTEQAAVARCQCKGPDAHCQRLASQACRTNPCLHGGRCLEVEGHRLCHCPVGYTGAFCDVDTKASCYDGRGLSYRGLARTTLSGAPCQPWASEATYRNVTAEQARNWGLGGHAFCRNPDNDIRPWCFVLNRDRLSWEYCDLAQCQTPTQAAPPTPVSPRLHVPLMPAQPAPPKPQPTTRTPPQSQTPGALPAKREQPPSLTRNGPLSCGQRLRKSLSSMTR
Kind of experiment: Determination of FXIIa inhibition (fluorogenic substrate H-DPro-Phe-Arg-AFC, IC50 assay). In kind it is biochemical. As to conditions: substrate at Km concentration, 25° C.; category scale; read-out: Human FXII IC50 (nm). Put shortly:
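Human FXIIa incubated at 25° C. with fluorogenic H-DPro-Phe-Arg-AFC at its Km concentration plus varying compound levels. Linear fluorescence increase over 5 min taken as % activity; IC50 is concentration halving uninhibited activity.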
A word on the IC50: it is the concentration that inhibits the measured activity by half. Consider `Cn1ccc(OCC23CN(C(=O)CCc4cccc5ncccc45)C(CNc4cccc5c(N)nccc45)(C2)C3)cc1=O` [Example 12052, 4-((1-(((1-aminoisoquinolin-5-yl)amino)methyl)-2-(3-(quinolin-5-yl)propanoyl)-2-azabicyclo[2.1.1]hexan-4-yl)methoxy)-1-methylpyridin-2(1H)-one], for which the 50% inhibitory concentration (IC50) lay within 10 to 100 nM.
In the case of `Cn1ccc(OCC23CN(C(=O)CCc4cccc(Br)c4)C(CNc4cccc5c(N)nccc45)(C2)C3)cc1=O` [Example 12053, 4-((1-(((1-aminoisoquinolin-5-yl)amino)methyl)-2-(3-(3-bromophenyl)propanoyl)-2-azabicyclo[2.1.1]hexan-4-yl)methoxy)-1-methylpyridin-2(1H)-one], the IC50 lay within 10 to 100 nM.
Regarding `Cn1ccc(OCC23CN(C(=O)CCc4ccc(=O)[nH]c4)C(CNc4cccc5c(N)nccc45)(C2)C3)cc1=O` [Example 12054, 4-((1-(((1-aminoisoquinolin-5-yl)amino)methyl)-2-(3-(6-oxo-1,6-dihydropyridin-3-yl)propanoyl)-2-azabicyclo[2.1.1]hexan-4-yl)methoxy)-1-methylpyridin-2(1H)-one], the IC50 lay within 10 to 100 nM.
With `Cn1ccc(OCC23CN(C(=O)CCc4ccc5cccnc5c4)C(CNc4cccc5c(N)nccc45)(C2)C3)cc1=O` [Example 12055, 4-((1-(((1-aminoisoquinolin-5-yl)amino)methyl)-2-(3-(quinolin-7-yl)propanoyl)-2-azabicyclo[2.1.1]hexan-4-yl)methoxy)-1-methylpyridin-2(1H)-one] the figure was 10 to 100 nM; with `Cn1ccc(OCC23CN(C(=O)CCc4cccc(OC(F)F)c4)C(CNc4cccc5c(N)nccc45)(C2)C3)cc1=O` [Example 12056, 4-((1-(((1-aminoisoquinolin-5-yl)amino)methyl)-2-(3-(3-(difluoromethoxy)phenyl)propanoyl)-2-azabicyclo[2.1.1]hexan-4-yl)methoxy)-1-methylpyridin-2(1H)-one], 10 to 100 nM; with `Cn1ccc(OCC23CN(c4nc5ccccc5o4)C(CNc4cccc5c(N)nccc45)(C2)C3)cc1=O` [Example 12057, 4-((1-(((1-Aminoisoquinolin-5-yl)amino)methyl)-2-(benzo[d]oxazol-2-yl)-2-azabicyclo[2.1.1]hexan-4-yl)methoxy)-1-methylpyridin-2(1H)-one], 1 to 10 nM.
On to `Cn1ccc(OCC23CN(C(=O)NCc4ccccc4F)C(CNc4cccc5c(N)nccc45)(C2)C3)cc1=O` [Example 12058, 1-(((1-aminoisoquinolin-5-yl)amino)methyl)-N-(2-fluorobenzyl)-4-(((1-methyl-2-oxo-1,2-dihydropyridin-4-yl)oxy)methyl)-2-azabicyclo[2.1.1]hexane-2-carboxamide], for which the IC50 fell in the range of 10 to 100 nM.
For the compound `COc1ccccc1NC(=O)N1CC2(COc3ccn(C)c(=O)c3)CC1(CNc1cccc3c(N)nccc13)C2` [Example 12059, 1-(((1-aminoisoquinolin-5-yl)amino)methyl)-N-(2-methoxyphenyl)-4-(((1-methyl-2-oxo-1,2-dihydropyridin-4-yl)oxy)methyl)-2-azabicyclo[2.1.1]hexane-2-carboxamide], the half-maximal inhibitory concentration (IC50) was in the range of 10 to 100 nM.
For `Cn1ccc(OCC23CN(c4ncc(-c5ccccc5)cn4)C(CNc4cccc5c(N)nccc45)(C2)C3)cc1=O` [Example 12060, 4-((1-(((1-Aminoisoquinolin-5-yl)amino)methyl)-2-(5-phenylpyrimidin-2-yl)-2-azabicyclo[2.1.1]hexan-4-yl)methoxy)-1-methylpyridin-2(1H)-one], the IC50 is 1 to 10 nM.
As for `COc1ccc(NC(=O)N2CC3(COc4ccn(C)c(=O)c4)CC2(CNc2cccc4c(N)nccc24)C3)cc1` [Example 12061, 1-(((1-Aminoisoquinolin-5-yl)amino)methyl)-N-(4-methoxyphenyl)-4-(((1-methyl-2-oxo-1,2-dihydropyridin-4-yl)oxy)methyl)-2-azabicyclo[2.1.1]hexane-2-carboxamide], the IC50 was in the range of 1 to 10 nM.
For the compound `COc1ccc(CNC(=O)N2CC3(COc4ccn(C)c(=O)c4)CC2(CNc2cccc4c(N)nccc24)C3)cc1` [Example 12062, 1-(((1-aminoisoquinolin-5-yl)amino)methyl)-N-(4-methoxybenzyl)-4-(((1-methyl-2-oxo-1,2-dihydropyridin-4-yl)oxy)methyl)-2-azabicyclo[2.1.1]hexane-2-carboxamide], the IC50 lay within 10 to 100 nM.
Take `Cn1ccc(OCC23CN(c4cccnc4)C(CNc4cccc5c(N)nccc45)(C2)C3)cc1=O` [Example 12064, 4-((1-(((1-aminoisoquinolin-5-yl)amino)methyl)-2-(pyridin-3-yl)-2-azabicyclo[2.1.1]hexan-4-yl)methoxy)-1-methylpyridin-2(1H)-one]: the IC50 fell in the range of 10 to 100 nM.
With `Cn1ccc(OCC23CN(c4ccncc4)C(CNc4cccc5c(N)nccc45)(C2)C3)cc1=O` [Example 12065, 4-((1-(((1-aminoisoquinolin-5-yl)amino)methyl)-2-(pyridin-4-yl)-2-azabicyclo[2.1.1]hexan-4-yl)methoxy)-1-methylpyridin-2(1H)-one] the figure was 1 to 10 nM; with `COc1ccccc1CNC(=O)N1CC2(COc3ccn(C)c(=O)c3)CC1(CNc1cccc3c(N)nccc13)C2` [Example 12067, 1-(((1-aminoisoquinolin-5-yl)amino)methyl)-N-(2-methoxybenzyl)-4-(((1-methyl-2-oxo-1,2-dihydropyridin-4-yl)oxy)methyl)-2-azabicyclo[2.1.1]hexane-2-carboxamide], 10 to 100 nM.
With `Cn1ccc(OCC23CN(C(=O)Nc4ccccc4F)C(CNc4cccc5c(N)nccc45)(C2)C3)cc1=O` [Example 12068, 1-(((1-aminoisoquinolin-5-yl)amino)methyl)-N-(2-fluorophenyl)-4-(((1-methyl-2-oxo-1,2-dihydropyridin-4-yl)oxy)methyl)-2-azabicyclo[2.1.1]hexane-2-carboxamide], the concentration for half-maximal inhibition (IC50) fell in the range of 1 to 10 nM.
Turning to `Cn1ccc(OCC23CN(C(=O)NCc4cccc(C(F)(F)F)c4)C(CNc4cccc5c(N)nccc45)(C2)C3)cc1=O` [Example 12069, 1-(((1-aminoisoquinolin-5-yl)amino)methyl)-4-(((1-methyl-2-oxo-1,2-dihydropyridin-4-yl)oxy)methyl)-N-(3-(trifluoromethyl)benzyl)-2-azabicyclo[2.1.1]hexane-2-carboxamide], the IC50 is 10 to 100 nM.
`Cn1ccc(OCC23CN(C(=O)NCc4ccc5occc5c4)C(CNc4cccc5c(N)nccc45)(C2)C3)cc1=O` [Example 12070, 1-(((1-aminoisoquinolin-5-yl)amino)methyl)-N-(benzofuran-5-ylmethyl)-4-(((1-methyl-2-oxo-1,2-dihydropyridin-4-yl)oxy)methyl)-2-azabicyclo[2.1.1]hexane-2-carboxamide]: the IC50 fell in the range of 10 to 100 nM.
Regarding `COc1ccc(C(=O)N2CC3(COc4ccn(C)c(=O)c4)CC2(CNc2cccc4c(N)nccc24)C3)cc1` [Example 12071, 4-((1-(((1-aminoisoquinolin-5-yl)amino)methyl)-2-(4-methoxybenzoyl)-2-azabicyclo[2.1.1]hexan-4-yl)methoxy)-1-methylpyridin-2(1H)-one], the half-maximal inhibitory concentration (IC50) was in the range of 10 to 100 nM.
On to `Cn1ccc(OCC23CN(C(=O)NCc4ccccc4)C(CNc4c(F)ccc5c(N)nccc45)(C2)C3)cc1=O` [Example 12072, 1-(((1-amino-6-fluoroisoquinolin-5-yl)amino)methyl)-N-benzyl-4-(((1-methyl-2-oxo-1,2-dihydropyridin-4-yl)oxy)methyl)-2-azabicyclo[2.1.1]hexane-2-carboxamide], for which the IC50 is 300 to 1000 nM.
With `CC(=O)N1CC2(CNc3cccc4c(N)nccc34)CC1(COc1ccn(C)c(=O)c1)C2` [Example 13003, 4-((2-acetyl-4-(((1-aminoisoquinolin-5-yl)amino)methyl)-2-azabicyclo[2.1.1]hexan-1-yl)methoxy)-1-methylpyridin-2(1H)-one] the figure was 100 to 300 nM.
Turning to `Cn1ccc(OCC23CC(CNc4cccc5c(N)nccc45)(CN2C(=O)Oc2ccccc2Cl)C3)cc1=O` [Example 13004, 2-chlorophenyl 4-(((1-aminoisoquinolin-5-yl)amino)methyl)-1-(((1-methyl-2-oxo-1,2-dihydropyridin-4-yl)oxy)methyl)-2-azabicyclo[2.1.1]hexane-2-carboxylate], the IC50 lay in the range of 100 to 300 nM.
Turning to `Cn1ccc(OCC23CC(CNc4cccc5c(N)nccc45)(CN2C(=O)OC(C)(C)C)C3)cc1=O` [Example 13005, tert-butyl 4-(((1-aminoisoquinolin-5-yl)amino)methyl)-1-(((1-methyl-2-oxo-1,2-dihydropyridin-4-yl)oxy)methyl)-2-azabicyclo[2.1.1]hexane-2-carboxylate], the IC50 lay within 100 to 300 nM.
As to `Cn1ccc(OCC23CC(CNc4cccc5c(N)nccc45)(CN2C(=O)Oc2ccccc2)C3)cc1=O` [Example 13006, phenyl 4-(((1-aminoisoquinolin-5-yl)amino)methyl)-1-(((1-methyl-2-oxo-1,2-dihydropyridin-4-yl)oxy)methyl)-2-azabicyclo[2.1.1]hexane-2-carboxylate], the half-inhibitory concentration (IC50) lay within 10 to 100 nM.
